System: MCF-7 human breast tumour cells
Assay: Anti-proliferative activity on the growth of MCF-7 human breast tumour cells (DNA dosage)
Assay type: cell-based
Conditions: MCF7, stimulated by EGF + PDGF, D7 to D9, read-out: IC50, concentration which inhibited by 50% the growth of the MCF-7 cells
Protocol: 2--Anti-proliferative activity on the growth of MCF-7 human breast tumour cells
The MCF-7 lines were maintained in culture in a base medium (according to 1) containing 5% of foetal calf serum at 37° C. under a humid atmosphere containing 5% CO2. The subconfluent cells were collected by trypsination (0.1% trypsin, 0.02% EDTA) and then rinsed by gentle centrifuging. A sample of the cells in suspension was counted with a Malassez cell.
The cells were resuspended in a base medium without phenol red in the presence of 5% of steroid-free FCS, and stimulated either by 0.1 nM of estradiol, or by 10 ng/ml of EGF+1 ng/ml of PDGF. The cells were seeded at a rate of 50,000 cells per well in multi-well plates (24 wells of 2.5 cm^2). Twenty-four hours after the seeding (DO), the product to be tested was added to the mixture in ethanolic solution (final concentration of ethanol: 0.1%), at a concentration of 10^-11 to 10^-6 M, the control wells receiving the same concentration of ethanol. The media containing the products were renewed every 48 hours. At the end of the experiment (D7 to D9), the mixture was extracted and the cells were immediately fixed with 250 microliters of methanol to dose the DNA. The anti-proliferative activity of the products was evaluated by their capacity to inhibit the increase of DNA relative to the control.
The DNA was dosed by a fluorimetric method using DABA (3,5diaminobenzoic acid) (according to 2): 200 microliters of DABA were added to each well and the plates were incubated for 45 minutes at 56° C. Then, 2 ml of 1N HCl were added and the fluorescence was measured using a fluorimeter (excitation wavelength: 408 nm, emission wavelength: 510 nm). The quantity of DNA per well was evaluated relative to a reference scale obtained by treating a calf thymus DNA standard under the same conditions.
The concentration in nM which inhibited by 50% the growth of the MCF-7 cells stimulated by EGF +PDGF (IC50) was determined in the manner indicated above.

| SMILES | IC50 |
| --- | --- |
| CN(CC(F)(F)C(F)(F)C(F)(F)F)S(=O)(=O)CCCCCOc1ccc([C@H]2C[C@]3(C)[C@@H](O)CC[C@H]3[C@@H]3CCc4cc(O)ccc4[C@H]32)cc1 [Example 8, 5-[4-(Δ1,3,5(10)-estratrien-3,17β-diol-11βyl)-Phenoxy]-N-(2,2,3,3,4,4,4-heptafluorobutyl)-N-methyl-pentanesulfonamide] | 0.026 nM |
| CCCCN(C)S(=O)(=O)CCCCCOc1ccc([C@H]2C[C@]3(C)[C@@H](O)CC[C@H]3[C@@H]3CCc4cc(O)ccc4[C@H]32)cc1 [Example 7, N-butyl-5-[4-(Δ1,3,5(10)-estratrien-3,17β-diol-11β-yl)phenoxy]-N-methyl-pentanesulfonamide] | 0.015 nM |
| CCCCNS(=O)(=O)CCCCCOc1ccc([C@H]2C[C@]3(C)[C@@H](O)CC[C@H]3[C@@H]3CCc4cc(O)ccc4[C@H]32)cc1 [Example 2, N-butyl-5-[4-(Δ1,3,5(10)-estratrien-3,17β-diol-11β-yl)phenoxy]-pentanesulfonamide] | 0.016 nM |
